Patent US11952328B2, “Selective ship inhibitors for treating disease” (THE RESEARCH FOUNDATION FOR THE STATE UNIVERSITY OF NEW YORK, priority 2018, dated 2024)

Experiments:
MC-38 = MC-38 viability following in vitro treatment; format: cell-based, mice; conditions: in vitro 24 h; all concentrations N.S. vs solvent only
Procedure: FIG. 7A and FIG. 7B show CT26 (FIG. 7A) and MC-38 (FIG. 7B) viability following in vitro treatment with 3AC for 24 h at indicated doses. Relative viability is expressed as frequency compared to solvent only treated cells. Kill curve summarizes pooled data from three independent experiments using six replicate wells/concentration with mean±SEM indicated. BALB/C mice were challenged with subcutaneous injection of CT26 colon carcinoma cells in the right flank. Mice were treated with either 2 consecutive days of 3AC or vehicle control each week as in FIG. 4A. Tumor size at […] 28 days (FIG. 7C), and tumor weight on day 28 determined after dissection of tumor (FIG. 7E). […] C57BL/6 mice were challenged with subcutaneous injection of MC-38 colon carcinoma cells in the right flank. Mice were treated with either 2 consecutive days of SHIP inhibitor or vehicle control each week as in FIG. 4A. Tumor size at 14, 21 and 25 days (FIG. 7D), and tumor weight (FIG. 7F) on day 25 were determined after dissection of tumor. […] FIG. 7A (n=18 per group. One-way ANOVA with Dunnett's multiple comparisons. 0 μM vs. 20 μM Adjusted p value=0.0463. All other concentrations of SHIP inhibitor compared with solvent only N.S.). FIG. 7B (n=18 per group. One-way ANOVA with Dunnett's multiple comparisons. All concentrations of SHIP inhibitor compared with solvent only N.S.). […]

[1] = tested on: MC-38 colon carcinoma cells; assay: Subcutaneous MC-38 colon carcinoma model; format: in vivo, C57BL/6 mice
Procedure: FIG. 7A and FIG. 7B show CT26 (FIG. 7A) and MC-38 (FIG. 7B) viability following in vitro treatment with 3AC for 24 h at indicated doses. Relative viability is expressed as frequency compared to solvent only treated cells. Kill curve summarizes pooled data from three independent experiments using six replicate wells/concentration with mean±SEM indicated. BALB/C mice were challenged with subcutaneous injection of CT26 colon carcinoma cells in the right flank. Mice were treated with either 2 consecutive days of 3AC or vehicle control each week as in FIG. 4A. Tumor size at […] 28 days (FIG. 7C), and tumor weight on day 28 determined after dissection of tumor (FIG. 7E). […] C57BL/6 mice were challenged with subcutaneous injection of MC-38 colon carcinoma cells in the right flank. Mice were treated with either 2 consecutive days of SHIP inhibitor or vehicle control each week as in FIG. 4A. Tumor size at 14, 21 and 25 days (FIG. 7D), and tumor weight (FIG. 7F) on day 25 were determined after dissection of tumor. […] FIG. 7A (n=18 per group. One-way ANOVA with Dunnett's multiple comparisons. 0 μM vs. 20 μM Adjusted p value=0.0463. All other concentrations of SHIP inhibitor compared with solvent only N.S.). FIG. 7B (n=18 per group. One-way ANOVA with Dunnett's multiple comparisons. All concentrations of SHIP inhibitor compared with solvent only N.S.). FIGS. 7C-7F graphs represent data from one of two independent experiments. FIG. 7C (n=10. Day 14 p<0.0001, Unpaired t test with Welch's correction. Day 21 p<0.0001, two-tailed student's t-test. Day 28 p<0.0001, two-tailed Student's t-test). FIG. 7E (n=10. P<0.0001, two-tailed Student's t-test) FIG. 7D (n=10. Day 14 p=0.0005, two-tailed student's t-test. Day 21 p=0.0009, two-tailed Student's t-test. Day 25 p=0.0009, two-tailed student's t-test). FIG. 7F (n=10. P=0.0067, two-tailed student's t-test).
Colorectal cancer is the second leading cause of cancer mortality in the United States (Siegel, R. L. et al., Colorectal cancer statistics, 2017. CA Cancer J Clin. (2017)). […]

SHIP1 = target: T1, SHIP1 (Homo sapiens, UniProt Q92835); conditions: Brooks et al. 2010; cited from earlier work
T1 sequence (Q92835 1-1189): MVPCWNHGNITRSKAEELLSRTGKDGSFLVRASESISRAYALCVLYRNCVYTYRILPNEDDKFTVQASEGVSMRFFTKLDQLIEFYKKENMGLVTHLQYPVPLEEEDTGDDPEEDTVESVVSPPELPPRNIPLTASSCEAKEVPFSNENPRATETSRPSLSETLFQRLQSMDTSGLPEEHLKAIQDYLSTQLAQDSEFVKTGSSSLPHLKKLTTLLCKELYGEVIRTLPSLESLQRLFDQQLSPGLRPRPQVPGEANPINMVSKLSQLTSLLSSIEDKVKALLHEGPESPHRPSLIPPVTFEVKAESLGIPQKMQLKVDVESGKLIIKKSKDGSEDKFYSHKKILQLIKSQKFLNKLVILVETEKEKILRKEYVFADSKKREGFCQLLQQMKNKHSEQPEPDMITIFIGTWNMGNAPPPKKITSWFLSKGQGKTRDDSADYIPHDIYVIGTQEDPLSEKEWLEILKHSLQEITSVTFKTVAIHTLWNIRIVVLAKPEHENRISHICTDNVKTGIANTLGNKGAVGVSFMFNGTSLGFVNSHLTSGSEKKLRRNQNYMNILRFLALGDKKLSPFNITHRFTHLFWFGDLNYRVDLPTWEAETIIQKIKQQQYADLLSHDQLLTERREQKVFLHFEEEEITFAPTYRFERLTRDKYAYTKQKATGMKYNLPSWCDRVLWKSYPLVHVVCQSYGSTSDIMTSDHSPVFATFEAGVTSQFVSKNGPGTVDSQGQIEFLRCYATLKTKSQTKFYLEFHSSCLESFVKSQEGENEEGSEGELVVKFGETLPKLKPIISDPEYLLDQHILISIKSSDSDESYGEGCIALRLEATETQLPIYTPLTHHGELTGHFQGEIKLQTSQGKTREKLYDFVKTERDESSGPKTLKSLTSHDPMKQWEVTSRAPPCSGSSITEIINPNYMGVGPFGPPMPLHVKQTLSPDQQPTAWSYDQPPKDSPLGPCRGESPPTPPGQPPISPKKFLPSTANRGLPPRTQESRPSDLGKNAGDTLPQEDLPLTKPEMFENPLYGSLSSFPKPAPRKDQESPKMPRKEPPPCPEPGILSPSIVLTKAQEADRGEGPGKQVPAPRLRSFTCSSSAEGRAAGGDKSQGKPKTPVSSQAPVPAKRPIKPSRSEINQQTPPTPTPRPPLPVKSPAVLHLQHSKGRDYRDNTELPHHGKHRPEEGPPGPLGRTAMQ

## CC(C)CCC[C@@H](C)[C@H]1CC[C@H]2[C@@H]3CCC4C[C@H](N)CC[C@]4(C)[C@H]3CC[C@]12C (stereo partly drawn) [Compound 3AC, 3-α-aminocholestane]
MC-38
  MC-38 viability (direct killing): resistant to direct killing
[1]; day 25, vs vehicle
  tumor weight: significant reduction
[1]; two consecutive days each week, days 14, 21, 25, vs vehicle
  tumor size: significant reduction
[1]; vs vehicle
  histological analysis (H&E) of tumors: prominent zones of tumor cell death
SHIP1
  selectivity for SHIP1: high degree of selectivity
